Earlier results in publication PMC5852599, “Microfluidic Devices for Drug Delivery Systems and Drug Screening” (Genes, 2018).

Test system: breast cancer cells (Her-2)
Parameters: method as in PMID 20237849
Conditions: 3D tumor spheroid in alginate hydrogel, compared to 2D cell culture

COc1cccc2c1C(=O)c1c(O)c3c(c(O)c1C2=O)C[C@@](O)(C(=O)CO)C[C@@H]3O[C@H]1C[C@H](N)[C@H](O)[C@H](C)O1 [doxorubicin]
effectiveness on cell viability and proliferation: lower effectiveness
